Common to all, as to experiment: growth of human tumour cells (NCI), 48 h
Test [1] relates to A549.
Test [2] relates to OVCAR-8.
In test [3] the test system is Hs-578T.
Test [4] relates to A498.
The subject of test [5] is HCT-15.
Test [6] has as its system BT-549.
Test [7] relates to NCI-H522.
In test [8] the test system is T47D.
For test [9], the system named is UACC-62.
For test [10], the system named is MDA-N.
The test system of test [11] is NCI/ADR-RES.
In test [12] the test system is CAKI-1.
Test [13] has as its system SK-OV-3.
For test [14], the system named is DU-145.
In test [15] the test system is SNB-19.
Test [16] relates to NCI-H460.
For test [17], the system named is U-251.
Test [18] relates to COLO 205.
Test [19] deals with HCC 2998.
In test [20] the test system is NCI-H226.

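Briefly, cells in 96-well plates were exposed to five compound concentrations for 48 h, and endpoints were estimated by linear interpolation. Abbreviation: GI50, concentration required for 50% inhibition of growth.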 Active and inactive are the calls of the source. Cut-off read from the data, not from the text of the source: active = GI50 up to about 1.1 µM and inactive = higher.

`Cc1ccc(C2SCC(=O)N2c2ccc(-c3ccc(-n4c(-c5ccccc5)nc5ccccc5c4=O)cc3)cc2)cc1` (configuration not stated): the GI50 in test [1] was > 100 µM (inactive); in test [2], > 100 µM (inactive); in [3], 55.5 µM (inactive); in [4], > 100 µM (inactive); in test [5] it was 62.5 µM; in [6], 60.7 µM (inactive). Also, the GI50 in [7] is 37.2 µM (inactive); in [8] it was 24.8 µM (inactive); in test [9], > 100 µM (inactive); in test [10], 80 µM (inactive); in [11], 91.4 µM (inactive); in [12] it was > 100 µM (inactive). Also, the GI50 in test [13] is > 100 µM (inactive); in test [14], > 100 µM (inactive); in [15], > 100 µM (inactive); in [16] it was 59.6 µM (inactive); in [17], 73.3 µM (inactive); in [18], 81.8 µM (inactive). In test [19], the GI50 is > 100 µM (inactive).

Regarding `CCOC(=O)c1cc(C)n(CN(CCO)Cn2nc(C(=O)OCC)cc2C)n1`, the GI50 in test [1] is 97.3 µM (inactive); in [2], 22.7 µM (inactive); in test [3], 97.7 µM (inactive); in test [4], > 100 µM (inactive); in [5], 21.5 µM; in [6] it was 27.5 µM (inactive). For the same molecule, the GI50 is 22.6 µM (inactive) in test [7]; 24.5 µM (inactive) in test [8]; 17.8 µM (inactive) in test [9]; 29.2 µM (inactive) in test [10]; 18.7 µM (inactive) in [11]; 36.2 µM (inactive) in [12]. Moreover, the GI50 in [13] is > 100 µM (inactive); in [14] it was 25.5 µM (inactive); in test [15] it was 52.4 µM (inactive); in [16], 66.5 µM (inactive); in test [17], 35.3 µM (inactive); in test [18] it was 20.5 µM (inactive). The GI50 in [19] is 11.8 µM (inactive).

For the molecule `NCCOc1ccccn1`, the GI50 is > 100 µM (inactive) in test [1]; > 100 µM (inactive) in test [2]; > 100 µM (inactive) in test [3]; > 100 µM (inactive) in test [4]; more than 100 µM in test [5]; > 100 µM (inactive) in test [6]. Besides, the GI50 in test [7], in [8], in [9], in test [10], in [11] and in [20] was > 100 µM (inactive) throughout. Besides, the GI50 in test [12], in test [13], in [14], in test [15], in test [16] and in test [17] was > 100 µM (inactive) in each case. Further, in test [18], the GI50 is > 100 µM (inactive).

As for `COC(=O)NC1(NC(=O)OC)NC(=O)c2ccccc2N1`, the GI50 in test [1] was < 0.01 µM (active); in [2], > 100 µM (inactive); in test [3] it was > 100 µM (inactive); in test [4] it was > 100 µM (inactive); in test [5], 63.5 µM; in [6], > 100 µM (inactive). For the same molecule, the GI50 is > 100 µM (inactive) in [7]; > 100 µM (inactive) in test [8]; > 100 µM (inactive) in [9]; 64.1 µM (inactive) in test [10]; > 100 µM (inactive) in test [11]; > 100 µM (inactive) in test [20]. Moreover, the GI50 in test [12], in [13], in [14], in test [15], in [16] and in test [18] was > 100 µM (inactive) throughout. In addition, the GI50 in test [19] is > 100 µM (inactive).

As to `CC(C)(O)C1CC[C@]2(C)[C@H]3CC[C@@H]4[C@@]5(C)CCCC(C)(C)[C@@H]5CC[C@@]4(C)[C@]3(C)CC[C@@H]12` (some centres not stated), the GI50 in test [1] is > 100 µM (inactive); in [2], > 100 µM (inactive); in [3], > 100 µM (inactive); in test [4], > 100 µM (inactive); in [5], more than 100 µM; in [6], > 100 µM (inactive). Moreover, the GI50 in [7], in [8], in [9], in test [10], in test [11] and in [12] was > 100 µM (inactive) in each case. Further, the GI50 in [13], in test [14], in test [15], in [16], in [17] and in [18] was > 100 µM (inactive) in each case. Further, the GI50 in [19] was > 100 µM (inactive).

As to `Clc1sc(Cl)c2c1[C@@H](Cl)C[C@@H]2Cl`, the GI50 was 61.9 µM (inactive) in test [1]; > 100 µM (inactive) in [2]; 38.1 µM (inactive) in test [3]; > 100 µM (inactive) in [4]; more than 100 µM in [5]; > 100 µM (inactive) in test [6]. For the same molecule, the GI50 in test [7] is 18.9 µM (inactive); in test [8], 45.4 µM (inactive); in test [9] it was 13.4 µM (inactive); in test [10], > 100 µM (inactive); in test [11], > 100 µM (inactive); in test [20] it was 57.3 µM (inactive). The GI50 in test [12] is 94.6 µM (inactive); in test [13] it was > 100 µM (inactive); in test [14], > 100 µM (inactive); in test [16] it was 92.9 µM (inactive); in test [17], > 100 µM (inactive); in test [18] it was > 100 µM (inactive). Also, the GI50 in test [19] was 63.4 µM (inactive).

Turning to `CCOC(=O)c1[nH]cc(C)c1-c1ccc2c(-c3ccccc3)nc3ccccc3n12`, the GI50 was 3.77 µM (inactive) in [1]; 4.25 µM (inactive) in test [2]; 2 µM (inactive) in test [3]; 2.84 µM (inactive) in test [4]; 3.55 µM in test [5]; 5.13 µM (inactive) in test [6]. The GI50 in test [7] was 1.53 µM (inactive); in test [8], 4.43 µM (inactive); in test [9], 2.73 µM (inactive); in test [10] it was 2.66 µM (inactive); in test [11], 2.51 µM (inactive); in test [20], 5.22 µM (inactive). In addition, the GI50 in [12] is 5.89 µM (inactive); in [13], 4.4 µM (inactive); in [14], 3.8 µM (inactive); in test [16], 2.92 µM (inactive); in test [17], 3.01 µM (inactive); in [18], 2.86 µM (inactive). Also, the GI50 in [19] was 2.26 µM (inactive).

For the molecule `O=C(/C=C/c1ccc(O)c(O)c1)OCCCOC(=O)/C=C/c1ccc(O)c(O)c1`, the GI50 was 31.3 µM (inactive) in test [1]; 22.8 µM (inactive) in test [2]; 49.5 µM (inactive) in [3]; 52.5 µM (inactive) in [4]; 14 µM in [5]; 25.3 µM (inactive) in test [6]. Also, the GI50 in test [7] was 11.6 µM (inactive); in test [8], 35.6 µM (inactive); in test [9], 16.6 µM (inactive); in test [10], 17.5 µM (inactive); in [11], 28.4 µM (inactive); in test [12], 34.4 µM (inactive). The GI50 in [13] was 27.2 µM (inactive); in test [14] it was 34.8 µM (inactive); in [15] it was 31.4 µM (inactive); in test [16], 21.8 µM (inactive); in [17], 23.5 µM (inactive); in test [18], 28.9 µM (inactive). Also, the GI50 in test [19] is 38.9 µM (inactive).

The record behind these values is ChEMBL document CHEMBL1201862, “PubChem BioAssay data set” (2004).
